Patent publication US20100048498A1, “STABLE NON-DIHYDRATE AZITHROMYCIN ORAL SUSPENSIONS” (priority 2004, published 2010)

Tests used:
Type in all cases: physicochemical
[1] = Stability of non-dihydrate azithromycin in suspension (POS formulation II or bulk drug in water); SS-NMR quantification of form A
Procedure: The stability of various forms of non-dihydrate azithromycin, in water and in flavored oral suspensions, was evaluated. Specifically, non-dihydrate azithromycin forms G, M, N, F and J were separately used in POS formulation II. These POS formulations were constituted by mixing with 18 mls of water. The suspensions were then stored for 1, 5 and 10 days at either 5° C. or 30° C. Suspensions of bulk azithromycin forms G, M, N, F and J were also constituted with 18 mls of water and stored under the same conditions.
Upon conclusion of the storage time period the suspensions were filtered and suspended solids collected as described previously.

[2] = Effects of flavoring components upon azithromycin form F conversion in constituted POS; conditions: room temperature
Excerpt: POS formulation II was constituted with water and stored identically to serve as a control for this experiment.

[3] = Effect of cyclodextrins on non-dihydrate azithromycin form conversion in constituted POS formulation II; conditions: for % Form A: 18 mls water
Procedure: The effect of adding a complexing agent such as cyclodextrin on the stability of non-dihydrate azithromycin forms G, M and F against conversion in a constituted POS formulation were evaluated.
Forms G, M and F of azithromycin were formulated into POS formulation II. Various cyclodextrins were added to the POS formulation II and the resulting samples were constituted with 18 mls of water. The suspensions were then stored for 24 hours at room temperature. At the end of the storage time, the suspensions were filtered and the recovered solids were weighed and analyzed by SS-NMR to quantify the presence of azithromycin dihydrate (form A). The control samples were formulated into formulation II with non-dihydrate azithromycin form G, M and F without cyclodextrins and were constituted with water, stored, filtered and analyzed identically to the cyclodextrin samples described above. A control, which had no cyclodextrin was run with each series of experiments. The SS-NMR data are presented in Tables 10, 11, 12 and the results are given as weight percent (% wt), of the recovered azithromycin sample.

[4] = Bulk Drug in 18 mls water, 5° C., Day 1
[5] = Bulk Drug in 18 mls water, 5° C., Day 10
[6] = Bulk Drug in 18 mls water, 30° C., Day 1
[7] = Bulk Drug in 18 mls water, 30° C., Day 10
[8] = Formulation II constituted with 18 mls water, 5° C., Day 1
[9] = Formulation II constituted with 18 mls water, 5° C., Day 10
[10] = Formulation II constituted with 18 mls water, 30° C., Day 1
[11] = Formulation II constituted with 18 mls water, 30° C., Day 10
[12] = POS Formulation II + Hydroxypropyl β-cyclodextrin 11.1 % w/w, 24 hours room temperature (Tables 11, 12)
[13] = POS Formulation II, no cyclodextrin (Control), 24 hours room temperature (Tables 11, 12)

% A (azithromycin dihydrate, form A, of recovered azithromycin) [1, 4] [%] | % A (azithromycin dihydrate, form A, of recovered azithromycin) [1, 5] [%] | % A (azithromycin dihydrate, form A, of recovered azithromycin) [1, 6] [%] | % A (azithromycin dihydrate, form A, of recovered azithromycin) [1, 7] [%] | % A (azithromycin dihydrate, form A, of recovered azithromycin) [1, 8] [%] | % A (azithromycin dihydrate, form A, of recovered azithromycin) [1, 9] [%] | % A (azithromycin dihydrate, form A, of recovered azithromycin) [1, 10] [%] | % A (azithromycin dihydrate, form A, of recovered azithromycin) [1, 11] [%] | % Form A [3, 12] [%] | % Form A [3, 13] [%] | SMILES | further results
0 | 0 | 0 | 0 | 6 | 27 | 19 | 31 | 0.0 | 74.6 | CCC1OC(=O)C(C)C(O[C@H]2C[C@@](C)(OC)[C@@H](O)C(C)O2)C(C)[C@@H](OC2OC(C)CC(N(C)C)[C@H]2O)[C@@](C)(O)C[C@@H](C)CN(C)[C@H](C)[C@@H](O)[C@]1(C)O (some centres unmarked) [Form F, azithromycin monohydrate hemi-ethanol solvate] | % F (SS-NMR Evaluation after 24 hrs constitution) ([2]; Formulation I constituted with 18 mL 0.0577 mg/ml benzaldehyde): 0%; % F (SS-NMR Evaluation after 24 hrs constitution) ([2]; Formulation I constituted with 18 mL 0.922 mg/ml 3-methyl-butyl acetate + 0.0577 mg/ml benzaldehyde): 0%; % F (SS-NMR Evaluation after 24 hrs constitution) ([2]; Formulation I constituted with 18 mL 0.922 mg/ml 3-methyl-butyl acetate): 0%; % F (SS-NMR Evaluation after 24 hrs constitution) ([2]; Formulation I constituted with 18 mL 1.666 mg/ml 3-methyl-butyl acetate): 0%; % F (SS-NMR Evaluation after 24 hrs constitution) ([2]; Formulation II constituted with 18 mL Water): 0%; % Form A ([3]; POS Formulation II + Sulfobutylether β-cyclodextrin 11.1 % w/w, 24 hours room temperature (Table 11)): 0.0%; % Form A ([3]; POS Formulation II + α-cyclodextrin 1.2 % w/w, 24 hours room temperature (Table 11)): 0.0%; conversion to form A ([3]; POS Formulation II when cyclodextrins were present, 24 hours room temperature): no conversion
0 | 0 | 0 | 0 | 0 | 0 | 0 | 0 |  |  | CCC1OC(=O)C(C)C(O[C@H]2C[C@@](C)(OC)[C@@H](O)C(C)O2)C(C)[C@@H](OC2OC(C)CC(N(C)C)[C@H]2O)[C@@](C)(O)C[C@@H](C)CN(C)[C@H](C)[C@@H](O)[C@]1(C)O (some centres unmarked) [Form J, azithromycin monohydrate hemi-n-propanol solvate] | 
0 | 0 | 0 | 0 | 23 | 40 | 28 | 62 | 0.0 | 71.6 | CCC1OC(=O)C(C)C(O[C@H]2C[C@@](C)(OC)[C@@H](O)C(C)O2)C(C)[C@@H](OC2OC(C)CC(N(C)C)[C@H]2O)[C@@](C)(O)C[C@@H](C)CN(C)[C@H](C)[C@@H](O)[C@]1(C)O (some centres unmarked) [Form M, azithromycin monohydrate hemi-isopropanol solvate] | % A (azithromycin dihydrate, form A, of recovered azithromycin) ([1]; Bulk Drug in 18 mls water, 5° C., Day 5): 0%; % A (azithromycin dihydrate, form A, of recovered azithromycin) ([1]; Bulk Drug in 18 mls water, 30° C., Day 5): 0%; % A (azithromycin dihydrate, form A, of recovered azithromycin) ([1]; Formulation II constituted with 18 mls water, 5° C., Day 5): 38%; % A (azithromycin dihydrate, form A, of recovered azithromycin) ([1]; Formulation II constituted with 18 mls water, 30° C., Day 5): 36%; % Form A ([3]; POS Formulation II + Hydroxypropyl β-cyclodextrin 11.1 % w/w, 24 hours room temperature (Tables 11, 12), listed as form M): no conversion; % Form A ([3]; POS Formulation II + β-cyclodextrin 1.2 % w/w, 24 hours room temperature (Table 12)): 0.9%; % Form A ([3]; POS Formulation II + β-cyclodextrin 1.2 % w/w, 24 hours room temperature (Table 12), listed as form M): very small amount of conversion; % Form A ([3]; POS Formulation II + γ-cyclodextrin 1.2 % w/w, 24 hours room temperature (Table 12)): 29.9%
